# Biological target: Mitogen-activated protein kinase kinase kinase 14 (Homo sapiens, UniProt Q99558)
# Test: Inhibition of auto-phosphorylation of recombinant human NF-kappaB-inducing kinase (NIK/MAP3K14) activity (AlphaScreen)
# Method: All compounds tested were dissolved in dimethyl sulfoxide (DMSO) and further dilutions were made in assay buffer. The final DMSO concentration was 0.7% (v/v) in assays. […] The assays were carried out in 384 well Proxiplates (Perkin Elmer).
# Chain of Mitogen-activated protein kinase kinase kinase 14 (Q99558 whole entry): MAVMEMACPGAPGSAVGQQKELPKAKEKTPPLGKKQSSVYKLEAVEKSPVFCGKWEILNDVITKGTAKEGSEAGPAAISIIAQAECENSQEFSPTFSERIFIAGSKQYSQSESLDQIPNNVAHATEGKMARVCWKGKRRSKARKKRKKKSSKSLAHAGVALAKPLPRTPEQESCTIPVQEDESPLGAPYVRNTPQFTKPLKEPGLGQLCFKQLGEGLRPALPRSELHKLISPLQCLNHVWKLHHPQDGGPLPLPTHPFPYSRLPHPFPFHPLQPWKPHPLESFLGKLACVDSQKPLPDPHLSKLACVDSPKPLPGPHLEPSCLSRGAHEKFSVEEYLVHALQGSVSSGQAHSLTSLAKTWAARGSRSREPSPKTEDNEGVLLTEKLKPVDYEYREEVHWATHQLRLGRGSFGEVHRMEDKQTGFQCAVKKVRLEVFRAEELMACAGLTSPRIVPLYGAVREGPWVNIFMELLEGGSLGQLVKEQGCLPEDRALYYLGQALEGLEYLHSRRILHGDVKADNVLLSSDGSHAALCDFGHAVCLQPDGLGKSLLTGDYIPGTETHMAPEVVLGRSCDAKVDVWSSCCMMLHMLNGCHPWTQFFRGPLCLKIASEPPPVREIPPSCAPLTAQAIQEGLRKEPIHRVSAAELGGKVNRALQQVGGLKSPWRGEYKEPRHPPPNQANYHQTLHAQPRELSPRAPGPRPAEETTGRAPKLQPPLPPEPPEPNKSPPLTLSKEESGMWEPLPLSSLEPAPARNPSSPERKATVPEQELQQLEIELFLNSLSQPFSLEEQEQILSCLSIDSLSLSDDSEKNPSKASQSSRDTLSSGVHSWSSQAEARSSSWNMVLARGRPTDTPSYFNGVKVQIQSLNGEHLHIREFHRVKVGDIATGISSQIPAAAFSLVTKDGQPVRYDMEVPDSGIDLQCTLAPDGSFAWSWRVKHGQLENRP
smiles,measurement,value
"Cc1cc(C#C[C@]2(O)CCN(C)C2=O)cc(-c2nc3c(N)ncnc3s2)c1 [US20240199605, Example 153]",IC50,0.8 nM
